One may read the Ki as a measure of affinity in units of concentration, obtained from inhibition or displacement.

The target of one experiment is memapsin 2 (Homo sapiens, UniProt P56817). The experiment can be described thus: Inhibition of memapsin 2 beta-secretase activity toward fluorogenic substrate FS-2. The experiment is classed as biochemical. The settings on record: pH 4, 37° C., 20 minutes pre-incubation, fluorogenic substrate FS-2, tight-binding model; read-out: M2 Ki.
The next experiment addresses Cathepsin D (Homo sapiens, UniProt P07339). Put plainly: Inhibition of cathepsin D activity (MALDI-TOF, substrate peptide […]). The experiment is classed as biochemical. The conditions noted are these: pH 4.1, 37 degrees C., read-out: Cath D Ki.

Sequence of Cathepsin D (P07339 65-412, species assumed): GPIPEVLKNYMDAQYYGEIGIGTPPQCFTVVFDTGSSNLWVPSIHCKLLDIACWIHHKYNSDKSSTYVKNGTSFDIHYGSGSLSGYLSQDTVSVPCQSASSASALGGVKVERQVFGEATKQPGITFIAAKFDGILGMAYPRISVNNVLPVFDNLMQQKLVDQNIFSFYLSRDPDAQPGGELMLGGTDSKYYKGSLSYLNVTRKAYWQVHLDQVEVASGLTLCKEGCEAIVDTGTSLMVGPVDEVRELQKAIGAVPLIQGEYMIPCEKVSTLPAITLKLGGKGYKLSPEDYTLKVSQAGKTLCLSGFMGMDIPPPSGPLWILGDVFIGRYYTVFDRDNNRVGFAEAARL
Sequence of memapsin 2 (P56817 46-501): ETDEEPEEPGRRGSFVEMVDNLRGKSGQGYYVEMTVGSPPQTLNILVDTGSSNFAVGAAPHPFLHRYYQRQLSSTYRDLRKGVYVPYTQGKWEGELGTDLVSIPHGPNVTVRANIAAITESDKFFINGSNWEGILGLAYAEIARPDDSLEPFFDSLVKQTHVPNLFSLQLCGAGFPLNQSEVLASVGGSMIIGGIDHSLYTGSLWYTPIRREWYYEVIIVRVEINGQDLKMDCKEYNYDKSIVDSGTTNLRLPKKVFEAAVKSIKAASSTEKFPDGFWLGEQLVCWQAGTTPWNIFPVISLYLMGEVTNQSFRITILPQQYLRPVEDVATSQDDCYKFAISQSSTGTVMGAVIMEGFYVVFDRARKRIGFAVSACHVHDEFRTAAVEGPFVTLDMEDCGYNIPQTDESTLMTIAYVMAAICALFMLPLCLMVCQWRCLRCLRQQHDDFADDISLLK
Protocol for Cathepsin D: After equilibration at 37 degrees C., the reactions were initiated by the addition of an aliquot of memapsin 2. Aliquots were removed at time intervals, and combined with an equal volume of MALDI-TOF matrix (α-hydroxycinnamic acid in acetone, 20 mg/ml) and immediately spotted in duplicate onto a stainless-steel MALDI sample plate. MALDI-TOF mass spectrometry was performed on a PE Biosystems Voyager DE instrument at the Molecular Biology Resource Center on campus. The instrument was operated at 25,000 accelerating volts in positive mode with a 150 ns delay. Ions with a mass-to-charge ratio (m/z) were detected in the range of 650-2000 atomic mass units. Data was analyzed by the Voyager Data Explorer module to obtain ion intensity data for mass species of substrates and corresponding products in a given mixture. Relative product formation was calculated as the ratio of signal intensity of the product to the sum of signal intensities of both product and the corresponding substrate. Relative product formed per unit time was obtained from non-linear regression analysis of the data representing the initial 15% formation of product using the model: 1−e^−kT,
where k is the relative hydrolytic rate constant and T is time in seconds. Initial rates were expressed relative to uninhibited controls and fit to a tight-binding model of competitive inhibition as above.
Protocol for memapsin 2: Potency of compounds were determined by measurement of their inhibition of memapsin 2 activity toward a fluorescent substrate. […] Briefly, assays were performed at pH 4, 37° C., by pre-incubation of memapsin 2 enzyme with compound for 20 minutes. Activity measure was initiated by addition of a fluorogenic substrate FS-2 (Bachem Americas, Torrance, Calif.). Fluorescent signal increase over time was measured as a rate of hydrolysis of the peptide substrate.

For `COc1ccc(C[C@H](NC(=O)[C@H](CNC(=O)OC(C)(C)C)NC(=O)[C@@H](C)Cc2nc(C)cs2)[C@@H](O)C[C@@H](C)C(=O)N[C@H](C(=O)NCC(C)C)C(C)C)cc1` [tert-butyl (S)-3-((2S,3S,5R)-3-hydroxy-6-((S)-1-(isobutylamino)-3-methyl-1-oxobutan-2-ylamino)-1-(4-methoxyphenyl)-5-methyl-6-oxohexan-2-ylamino)-2-((S)-2-methyl-3-(4-methylthiazol-2-yl)propanamido)-3-oxopropylcarbamate], the Ki was over 600 nM at memapsin 2 and under 100 nM at Cathepsin D.

In the case of `Cc1csc(C[C@H](C)C(=O)N[C@@H](CC(=O)N(C)C)C(=O)N[C@@H](CC(C)C)[C@@H](O)C[C@@H](C)C(=O)N[C@H](C(=O)NCC(C)C)C(C)C)n1` [(S)-N1-((4S,5S,7R)-5-hydroxy-8-((S)-1-(isobutylamino)-3-methyl-1-oxobutan-2-ylamino)-2,7-dimethyl-8-oxooctan-4-yl)-N4,N4-dimethyl-2-((S)-2-methyl-3-(4-methylthiazol-2-yl)propanamido)succinamide], the Ki is 100 to 600 nM on memapsin 2 and under 100 nM at Cathepsin D.

Regarding `Cc1cc(C)n(CC(C)C(=O)N[C@@H](CC(N)=O)C(=O)N[C@@H](CC(C)C)[C@@H](O)C[C@@H](C)C(=O)N[C@H](C(=O)NCC(C)C)C(C)C)n1` (stereo partly drawn) [(2S)-2-(3-(3,5-dimethyl-1H-pyrazol-1-yl)-2-methylpropanamido)-N1-((4S,5S,7R)-5-hydroxy-8-((S)-1-(isobutylamino)-3-methyl-1-oxobutan-2-ylamino)-2,7-dimethyl-8-oxooctan-4-yl)succinamide], the Ki at memapsin 2 fell in the range of 100 to 600 nM.

As for `CCNC(=O)C[C@H](NC(=O)[C@@H](C)Cc1nc(C)cs1)C(=O)N[C@@H](CC(C)C)[C@@H](O)C[C@@H](C)C(=O)N[C@H](C(=O)NCC(C)C)C(C)C` [(S)-N4-ethyl-N1-((4S,5S,7R)-5-hydroxy-8-((S)-1-(isobutylamino)-3-methyl-1-oxobutan-2-ylamino)-2,7-dimethyl-8-oxooctan-4-yl)-2-((S)-2-methyl-3-(4-methylthiazol-2-yl)propanamido)succinamide], the Ki on memapsin 2 was under 100 nM.

`Cc1csc(C[C@H](C)C(=O)N[C@@H](CC(N)=O)C(=O)N[C@@H](CC(C)C)[C@@H](O)C[C@@H](C)C(=O)N[C@H](C(=O)NCC(C)C)C(C)C)n1` [(S)-N1-((4S,5S,7R)-5-hydroxy-8-((S)-1-(isobutylamino)-3-methyl-1-oxobutan-2-ylamino)-2,7-dimethyl-8-oxooctan-4-yl)-2-((S)-2-methyl-3-(4-methylthiazol-2-yl)propanamido)succinamide]: the figures for the Ki at memapsin 2 and at Cathepsin D were 100 to 600 nM and under 100 nM, respectively.

On to `CC[C@@H](Cn1nc(C)cc1C)C(=O)N[C@@H](CC(N)=O)C(=O)N[C@@H](CC(C)C)[C@@H](O)C[C@@H](C)C(=O)N[C@H](C(=O)NCC(C)C)C(C)C` [(S)-2-((S)-2-((3,5-dimethyl-1H-pyrazol-1-yl)methyl)butanamido)-N1-((4S,5S,7R)-5-hydroxy-8-((S)-1-(isobutylamino)-3-methyl-1-oxobutan-2-ylamino)-2,7-dimethyl-8-oxooctan-4-yl)succinamide], for which the inhibitory constant (Ki) at memapsin 2 was 100 to 600 nM; on Cathepsin D, under 100 nM.

As to `Cc1cc(C)n(CCC(=O)N[C@@H](CC(N)=O)C(=O)N[C@@H](CC(C)C)[C@@H](O)C[C@@H](C)C(=O)N[C@H](C(=O)NCC(C)C)C(C)C)n1` [(S)-2-(3-(3,5-dimethyl-1H-pyrazol-1-yl)propanamido)-N1-((4S,5S,7R)-5-hydroxy-8-((S)-1-(isobutylamino)-3-methyl-1-oxobutan-2-ylamino)-2,7-dimethyl-8-oxooctan-4-yl)succinamide], the Ki at memapsin 2 is 100 to 600 nM; at Cathepsin D, under 100 nM.

As to `Cc1cc(C)n(CCC(=O)N[C@@H](CC(N)=O)C(=O)N[C@@H](CC(C)C)[C@@H](O)C[C@@H](C)C(=O)NC(C)(C)C(=O)NCC(C)C)n1` [(S)-2-(3-(3,5-dimethyl-1H-pyrazol-1-yl)propanamido)-N1-((4S,5S,7R)-5-hydroxy-8-(1-(isobutylamino)-2-methyl-1-oxopropan-2-ylamino)-2,7-dimethyl-8-oxooctan-4-yl)succinamide], the Ki at memapsin 2 is over 600 nM.

As to `Cc1cc(C)n(CCC(=O)N[C@@H](CC(=O)OCc2ccccc2)C(=O)N[C@@H](CC(C)C)[C@@H](O)C[C@@H](C)C(=O)N[C@H](C(=O)NCC(C)C)C(C)C)n1` [(S)-benzyl 3-(3-(3,5-dimethyl-1H-pyrazol-1-yl)propanamido)-4-((4S,5S,7R)-5-hydroxy-8-((S)-1-(isobutylamino)-3-methyl-1-oxobutan-2-ylamino)-2,7-dimethyl-8-oxooctan-4-ylamino)-4-oxobutanoate], the Ki at memapsin 2 was under 100 nM.

In the case of `Cc1nc(COC(=O)N[C@@H](CC(N)=O)C(=O)N[C@@H](CC(C)C)[C@@H](O)C[C@@H](C)C(=O)N[C@H](C(=O)NCC(C)C)C(C)C)c(C)o1` [(2,5-dimethyloxazol-4-yl)methyl (S)-4-amino-1-((4S,5S,7R)-5-hydroxy-8-((S)-1-(isobutylamino)-3-methyl-1-oxobutan-2-ylamino)-2,7-dimethyl-8-oxooctan-4-ylamino)-1,4-dioxobutan-2-ylcarbamate], the Ki is 100 to 600 nM on memapsin 2 and under 100 nM at Cathepsin D.

Consider `CC[C@H](Cn1nc(C)cc1C)C(=O)N[C@@H](CNC(=O)OC(C)(C)C)C(=O)N[C@@H](CC(C)C)[C@@H](O)C[C@@H](C)C(=O)N[C@H](C(=O)NCC(F)(F)F)C(C)C` [tert-butyl (S)-2-((R)-2-((3,5-dimethyl-1H-pyrazol-1-yl)methyl)butanamido)-3-((4S,5S,7R)-5-hydroxy-2,7-dimethyl-8-((S)-3-methyl-1-oxo-1-(2,2,2-trifluoroethylamino)butan-2-ylamino)-8-oxooctan-4-ylamino)-3-oxopropylcarbamate], for which the values for the Ki at memapsin 2 and on Cathepsin D were over 600 nM and 100 to 600 nM, respectively.

For `Cc1nc(COC(=O)N[C@@H](CC(=O)O)C(=O)N[C@@H](CC(C)C)[C@@H](O)C[C@@H](C)C(=O)N[C@H](C(=O)NCC(C)C)C(C)C)c(C)o1` [(S)-3-(((2,5-dimethyloxazol-4-yl)methoxy)carbonylamino)-4-((4S,5S,7R)-5-hydroxy-8-((S)-1-(isobutylamino)-3-methyl-1-oxobutan-2-ylamino)2,7-dimethyl-8-oxooctan-4-ylamino)-4-oxobutanoic acid], the Ki was 100 to 600 nM on memapsin 2 and under 100 nM at Cathepsin D.

`Cc1cc(C)n(CCC(=O)N[C@@H](CC(N)=O)C(=O)N[C@@H](CC(C)C)[C@@H](O)C[C@@H](C)C(=O)NC2(C(=O)NCC(C)C)CCCC2)n1` [(S)-2-(3-(3,5-dimethyl-1H-pyrazol-1-yl)propanamido)-N1-((4S,5S,7R)-5-hydroxy-8-(1-(isobutylcarbamoyl)cyclopentylamino)-2,7-dimethyl-8-oxooctan-4-yl)succinamide]: the Ki at memapsin 2 was over 600 nM.

With `COCCOCCOC(=O)C[C@H](NC(=O)OCc1nc(C)oc1C)C(=O)N[C@@H](CC(C)C)[C@@H](O)C[C@@H](C)C(=O)N[C@H](C(=O)NCC(C)C)C(C)C` [(S)-2-(2-methoxyethoxy)ethyl 3-(((2,5-dimethyloxazol-4-yl)methoxy)carbonylamino)-4-((4S,5S,7R)-5-hydroxy-8-((S)-1-(isobutylamino)-3-methyl-1-oxobutan-2-ylamino)2,7-dimethyl-8-oxooctan-4-ylamino)-4-oxobutanoate], the Ki on memapsin 2 and at Cathepsin D was under 100 nM throughout.

With `Cc1nc(COC(=O)N[C@@H](CC(=O)N(C)C)C(=O)N[C@@H](CC(C)C)[C@@H](O)C[C@@H](C)C(=O)N[C@H](C(=O)NCC(C)C)C(C)C)c(C)o1` [(2,5-dimethyloxazol-4-yl)methyl (5S,8S,9S,11R,14S)-9-hydroxy-8-isobutyl-14-isopropyl-2,11,18-trimethyl-3,6,12,15-tetraoxo-2,7,13,16-tetraazanonadecan-5-ylcarbamate], the Ki at memapsin 2 lay in the range of 100 to 600 nM.

For the compound `COCC[C@H](NC(=O)[C@H](C)C[C@H](O)[C@H](CC(C)C)NC(=O)[C@H](CC(N)=O)NC(=O)CCn1nc(C)cc1C)C(=O)NCC(C)C` [(S)-2-(3-(3,5-dimethyl-1H-pyrazol-1-yl)propanamido)-N1-((4S,5S,7R)-5-hydroxy-8-((S)-1-(isobutylamino)-4-methoxy-1-oxobutan-2-ylamino)-2,7-dimethyl-8-oxooctan-4-yl)succinamide], the Ki on memapsin 2 is over 600 nM.

As for `Cc1cc(C)n(CCC(=O)N[C@@H](CC(=O)O)C(=O)N[C@@H](CC(C)C)[C@@H](O)C[C@@H](C)C(=O)N[C@H](C(=O)NCC(C)C)C(C)C)n1` [(S)-3-(3-(3,5-dimethyl-1H-pyrazol-1-yl)propanamido)-4-((4S,5S,7R)-5-hydroxy-8-((S)-1-(isobutylamino)-3-methyl-1-oxobutan-2-ylamino)-2,7-dimethyl-8-oxooctan-4-ylamino)-4-oxobutanoic acid], the Ki on memapsin 2 is 100 to 600 nM.

`Cc1cc(C)n(CCC(=O)N[C@@H](CC(N)=O)C(=O)N[C@@H](CC(C)C)[C@@H](O)C[C@@H](C)C(=O)NC(CO)C(=O)NCC(C)C)n1` (stereo partly drawn) [(2S)-2-(3-(3,5-dimethyl-1H-pyrazol-1-yl)propanamido)-N1-((4S,5S,7R)-5-hydroxy-8-(3-hydroxy-1-(isobutylamino)-1-oxopropan-2-ylamino)-2,7-dimethyl-8-oxooctan-4-yl)succinamide]: at memapsin 2, the Ki is over 600 nM.

For the compound `Cc1csc(C[C@H](C)C(=O)N[C@@H](CNC(=O)OC(C)(C)C)C(=O)N[C@@H](CC(C)C)[C@@H](O)C[C@@H](C)C(=O)N[C@H](CS(=O)(=O)CC(C)C)C(C)C)n1` [tert-butyl (S)-3-((4S,5S,7R)-5-hydroxy-8-((S)-1-(isobutylsulfonyl)-3-methylbutan-2-ylamino)-2,7-dimethyl-8-oxooctan-4-ylamino)-2-((S)-2-methyl-3-(4-methylthiazol-2-yl)propanamido)-3-oxopropylcarbamate], the Ki at memapsin 2 and on Cathepsin D was over 600 nM throughout.

Take `CC[C@H](Cc1nc(C)cs1)C(=O)N[C@@H](CNC(=O)OC(C)(C)C)C(=O)N[C@@H](CC(C)C)[C@@H](O)C[C@@H](C)C(=O)N[C@H](C(=O)NCC(C)C)C(C)C` [tert-butyl (S)-3-((4S,5S,7R)-5-hydroxy-8-((S)-1-(isobutylamino)-3-methyl-1-oxobutan-2-ylamino)-2,7-dimethyl-8-oxooctan-4-ylamino)-2-((R)-2-((4-methylthiazol-2-yl)methyl)butanamido)-3-oxopropylcarbamate]: the Ki on memapsin 2 was over 600 nM.

The record behind these values is patent US7659289B2, “Hydroxyethylene-based β-secretase inhibitors and use thereof” (CoMentis, Inc., priority 2004, dated 2010).
